Measurements taken from ChEMBL document CHEMBL1143792, “Natural dibenzoxazepinones from leaves of Carex distachya: Structural elucidation and radical scavenging activity” (Bioorg Med Chem Lett, 2007).

Key:
[1] = Nitric oxide radical scavenging activity at 0.1 mg/ml; format: functional
[2] = DPPH radical scavenging activity at 0.1 mg/ml; format: functional

Structure (SMILES) | Activity [1] [%] | Activity [2] [%]
O=C1O[C@H]([C@@H](O)CO)C(O)=C1O | 66 | 
COc1cc2c(c(OC)c1C)C(=O)Nc1ccc(O)c(C)c1O2 | 63 | 25
COc1cc2c(c(O)c1C)C(=O)Nc1ccc(O)cc1O2 | 59 | 
